Values after ≈ are worked out from the molar mass of the structure shown. Counter-ions that a name gives are not always drawn. Like-named read-outs stand apart in the source and are kept apart here.
Tests used:
[1] = tested on: Bacillus subtilis PCI 219; assay: In vitro antibacterial activity, MIC (standard strain); type: cell-based; details: PCI219
S. aureus Smith [2] = assay: as above; type: cell-based, Staphylococcus aureus
[3] = tested on: S. aureus IID 670 (Terajima); assay: as above; type: cell-based, Staphylococcus aureus; details: Staphylococcus aureus
S. epidermidis IID 866 = assay: as above; type: cell-based; details: Staphylococcus epidermidis
S. pneumoniae IID 552 = assay: as above; type: cell-based; details: Streptococcus pneumoniae, IID552; S. pneumoniae IID 552; 10^6 cells/ml; standard strain; read-out: MIC
S. faecalis IID 682 = assay: as above; type: cell-based; details: Enterococcus faecalis, IID682
[4] = tested on: Enterobacter cloacae IID 977; assay: as above; type: cell-based; details: Enterobacter cloacae, IID977, Enterobacter cloacae IID 977; 10^6 cells/ml; standard strain; read-out: MIC
[5] = tested on: Klebsiella pneumoniae KY(GN)6445; assay: as above; type: cell-based; details: Klebsiella pneumoniae KY(GN)6445; 10^6 cells/ml; standard strain; read-out: MIC
[6] = tested on: Salmonella entritidis IID 604; assay: as above; type: cell-based; details: IID604; Salmonella entritidis IID 604; 10^6 cells/ml; standard strain; read-out: MIC
Shigella sonnei IID 969 = assay: as above; type: cell-based; details: IID969, 10^6 cells/ml
Procedure: Experiment-1 In vitro antibacterial activity
The in vitro antibacterial activity against gram-positive and gram-negative bacteria has been investivated.
The minimum inhibitory concentration (MIC) was determined in accordance with the method recommended by Japan Society of Chemotherapy.

[7] = tested on: Pseudomonas aeruginosa V-1; assay: as above; type: cell-based; details: V1
P. aeruginosa IID 1210 = assay: as above; type: cell-based; details: Pseudomonas aeruginosa, IID1210; P. aeruginosa IID 1210; 10^6 cells/ml; standard strain; read-out: MIC
[8] = tested on: Bacteroides fragilis GM 7000; assay: as above; type: cell-based; details: GM7000; Bacteroides fragilis GM 7000; 10^6 cells/ml; standard strain; read-out: MIC
B. fragilis 25285 = assay: as above; type: cell-based, Bacteroides fragilis; details: Bacteroides fragilis, 25285, B. fragilis 25285; 10^6 cells/ml; standard strain; read-out: MIC
[9] = tested on: Fusobacterium varium KYA 8501; assay: as above; type: cell-based; details: Fusobacterium varium, KYA8501, Fusobacterium varium KYA 8501; 10^6 cells/ml; standard strain; read-out: MIC
C. ramosum = assay: as above; type: cell-based; details: Thomasclavelia ramosa; C. ramosum; 10^6 cells/ml; standard strain; read-out: MIC
C. difficile I-E = assay: as above; type: cell-based; details: Clostridioides difficile; C. difficile I-E; 10^6 cells/ml; standard strain; read-out: MIC
S. pneumoniae 28 = assay: In vitro antibacterial activity, MIC (clinical isolates); type: cell-based; details: Streptococcus pneumoniae, 10^6 cells/ml, clinical isolate
S. pyogenes 3107 = assay: as above; type: cell-based; details: Streptococcus pyogenes
S. pyogenes 4372 = assay: as above; type: cell-based; details: Streptococcus pyogenes
S. agalactiae 4394 = assay: as above; type: cell-based; details: Streptococcus agalactiae; S. agalactiae 4394; 10^6 cells/ml; clinical isolate; read-out: MIC
S. agalactiae 4468 = assay: as above; type: cell-based; details: Streptococcus agalactiae; S. agalactiae 4468; 10^6 cells/ml; clinical isolate; read-out: MIC
S. faecalis 49 = assay: as above; type: cell-based; details: Enterococcus faecalis; S. faecalis 49; 10^6 cells/ml; clinical isolate; read-out: MIC
S. faecalis 214 = assay: as above; type: cell-based; details: Enterococcus faecalis; S. faecalis 214; 10^6 cells/ml; clinical isolate; read-out: MIC
S. faecalis 401 = assay: as above; type: cell-based; details: Enterococcus faecalis; S. faecalis 401; 10^6 cells/ml; clinical isolate; read-out: MIC
E. coli ML4707 = assay: In vivo antibacterial activity against systemic infection in mice; parameters: species or system mice (ICR-S); details: Escherichia coli, ML4707; mice (ICR-S); oral, an hour after intraperitoneal infection; challenge dose 2.7 x 10^6 ~ 8.8 x 10^6 cfu/mouse; read-out: ED50 E. coli ML4707
Procedure: (§1) Experiment-2 In vivo antibacterial activity against systemic infection in mice (ICR-S)
(§2) The infections were produced by intraperitoneal injection of a suspension of the bacterial culture corresponding to the germ studied. The products were administered orally at an hour after the infection.

S. aureus Smith [10] = assay: as above; parameters: species or system mice (ICR-S); details: Staphylococcus aureus, po, mice (ICR-S), an hour after intraperitoneal infection
Procedure: as §1, §2

S. pneumoniae S-4288 = assay: as above; parameters: species or system mice (ICR-S); details: Streptococcus pneumoniae, S4288; mice (ICR-S); oral, an hour after intraperitoneal infection; challenge dose 7.5 x 10^4 ~ 4.8 x 10^6 cfu/mouse; read-out: ED50 S. pneumoniae S-4288
Procedure: as §1, §2

[11] = Bacillus subtilis PCI 219, 10^6 cells/ml, standard strain, read-out: MIC
[12] = Staphylococcus aureus, S. aureus Smith, 10^6 cells/ml, standard strain
[13] = IID670, S. aureus IID 670 (Terajima), 10^6 cells/ml, standard strain, read-out: MIC
[14] = IID866, S. epidermidis IID 866, 10^6 cells/ml, standard strain, read-out: MIC
[15] = Pseudomonas aeruginosa V-1, 10^6 cells/ml, standard strain, read-out: MIC
[16] = Staphylococcus aureus, S. aureus Smith, 10^6 cells/ml, standard strain, read-out: MIC
[17] = S. faecalis IID 682, 10^6 cells/ml, standard strain, read-out: MIC
[18] = S. pyogenes 3107, 10^6 cells/ml, clinical isolate, read-out: MIC
[19] = S. pyogenes 4372, 10^6 cells/ml, clinical isolate, read-out: MIC

Row | Compound | MIC [1, 11] [µg/mL] | MIC [3, 13] [µg/mL] | MIC (S. epidermidis IID 866; [14]) [µg/mL] | MIC (S. pneumoniae IID 552) [µg/mL] | MIC [4] [µg/mL] | MIC [5] [µg/mL] | MIC [6] [µg/mL] | MIC (Shigella sonnei IID 969) [µg/mL] | MIC [7, 15] [µg/mL] | MIC (P. aeruginosa IID 1210) [µg/mL] | MIC [8] [µg/mL] | MIC (B. fragilis 25285) [µg/mL] | MIC [9] [µg/mL] | MIC (C. ramosum) [µg/mL] | MIC (S. agalactiae 4394) [µg/mL] | MIC (S. agalactiae 4468) [µg/mL] | MIC (S. faecalis 49) [µg/mL] | MIC (S. faecalis 214) [µg/mL] | MIC (S. faecalis 401) [µg/mL] | MIC (S. faecalis IID 682; [17]) [µg/mL] | also measured
1 | CCn1cc(C(=O)O)c(=O)c2cc(F)c(N3CCNCC3)cc21 [NFLX, Norfloxacin, reference compound] | 0.1 (≈ 0.313 µM) | 0.78 (≈ 2.44 µM) | 0.39 (≈ 1.22 µM) | 3.13 (≈ 9.8 µM) | 0.1 (≈ 0.313 µM) | 0.05 (≈ 0.157 µM) | 0.1 (≈ 0.313 µM) | 0.05 (≈ 0.157 µM) | 0.78 (≈ 2.44 µM) | 3.13 (≈ 9.8 µM) | 25 (≈ 78.3 µM) | 25 (≈ 78.3 µM) | 100 (≈ 313 µM) | 50 (≈ 157 µM) | 6.25 (≈ 19.6 µM) | 3.13 (≈ 9.8 µM) | 3.13 (≈ 9.8 µM) | 3.13 (≈ 9.8 µM) | 6.25 (≈ 19.6 µM) |  | MIC (S. aureus Smith [2]; [12]): 1.56 µg/mL (≈ 4.89 µM); MIC (S. faecalis IID 682): 1.56 µg/mL (≈ 4.89 µM); MIC (C. difficile I-E): 50 µg/mL (≈ 157 µM); MIC (S. pneumoniae 28): 6.25 µg/mL (≈ 19.6 µM); MIC (S. pyogenes 3107; 3107): 1.56 µg/mL (≈ 4.89 µM); MIC (S. pyogenes 4372; 4372): 1.56 µg/mL (≈ 4.89 µM)
2 | CCNCC1CCN(c2c(F)cc3c(=O)c(C(=O)O)cn(CC)c3c2F)C1 (centres unmarked) [Ref.1, 1-Ethyl-7-(3-ethylaminomethyl-1-pyrrolidinyl)-6,8-difluoro-1,4-dihydro-4-oxo-3-quinolinecarboxylic acid, reference compound] | 0.05 (≈ 0.132 µM) | 0.1 (≈ 0.264 µM) | 0.1 (≈ 0.264 µM) | 0.2 (≈ 0.527 µM) | 0.2 (≈ 0.527 µM) | 0.2 (≈ 0.527 µM) | 0.39 (≈ 1.03 µM) | 0.1 (≈ 0.264 µM) | 6.25 (≈ 16.5 µM) | 12.5 (≈ 32.9 µM) | 12.5 (≈ 32.9 µM) | 6.25 (≈ 16.5 µM) | 6.25 (≈ 16.5 µM) | 6.25 (≈ 16.5 µM) | 0.78 (≈ 2.06 µM) | 0.39 (≈ 1.03 µM) | 0.39 (≈ 1.03 µM) | 0.39 (≈ 1.03 µM) | 0.39 (≈ 1.03 µM) | 0.2 (≈ 0.527 µM) | MIC (S. aureus Smith [2]; [16]): 0.1 µg/mL (≈ 0.264 µM); MIC (S. pyogenes 3107; [18]): 0.1 µg/mL (≈ 0.264 µM); MIC (S. pyogenes 4372; [19]): 0.2 µg/mL (≈ 0.527 µM); ED50 (E. coli ML4707): > 10 mg/kg; ED50 (S. aureus Smith [10]; challenge dose 6.0 x 10^5 cfu/mouse, read-out: ED50 S. aureus Smith): 5 mg/kg; ED50 (S. pneumoniae S-4288): 62.2 mg/kg
3 | NCC1CCN(c2c(F)cc3c(=O)c(C(=O)O)cn(C4CC4)c3c2F)C1 (stereo not drawn) [Example 1, 7-(3-Aminomethyl-l-pyrrolidinyl)-l-cyclopropyl-6,8-difluoro-1,4-dihydro-4-oxo-3-quinolinecarboxylic acid hydrochloride] | 0.025 | 0.05 | 0.05 | 0.05 | 0.1 | 0.05 | 0.05 | 0.025 | 0.39 | 0.78 | 0.78 | 0.39 | 0.78 | 0.78 | 0.1 | 0.05 | 0.1 | 0.1 | 0.1 | 0.05 | MIC (S. aureus Smith [2]; MIC column of Table 3-1, beside ED50 against S. aureus Smith): 0.05 µg/mL; MIC (S. aureus Smith [2]; [16]): 0.05 µg/mL; MIC (C. difficile I-E): 1.56 µg/mL; MIC (S. pneumoniae 28): 0.05 µg/mL; MIC (S. pyogenes 3107; [18]): 0.05 µg/mL; MIC (S. pyogenes 4372; [19]): 0.05 µg/mL; ED50 (S. aureus Smith [10]; challenge dose 7 x 10^5 cfu/mouse, n=5, read-out: ED50 against S. aureus Smith): 0.9 mg/kg
4 | CCNCC1CCN(c2cc3c(cc2F)c(=O)c(C(=O)O)cn3C2CC2)C1.Cl (centres unmarked) [Example 7, 1-Cyclopropyl-7-(3-ethylaminomethyl-1-pyrrolidinyl)-6-fluoro-1,4-dihydro-4-oxo-3-quinolinecarboxylic acid hydrochloride] | 0.025 | 0.1 | 0.05 | 0.39 | 0.39 | 0.1 | 0.2 | 0.05 | 1.56 | 3.13 | 25 | 25 | 12.5 | 6.25 | 0.39 | 0.39 | 0.78 | 0.78 | 0.78 | 0.39 | MIC (S. aureus Smith [2]; [16]): 0.1 µg/mL; MIC (C. difficile I-E): 12.5 µg/mL; MIC (S. pyogenes 3107; [18]): 0.2 µg/mL; MIC (S. pyogenes 4372; [19]): 0.2 µg/mL
5 | CNCC1CCN(c2cc3c(cc2F)c(=O)c(C(=O)O)cn3C2CC2)C1 (stereo not drawn) [Example 9, 1-Cyclopropyl-6-fluoro-1,4-dihydro-7-(3-methylaminomethyl-l-pyrrolidinyl)-4-oxo-3-quinolinecarboxylic acid hydrochloride] | 0.05 | 0.2 | 0.1 | 0.39 | 0.39 | 0.1 | 0.2 | 0.1 |  | 3.13 | 25 | 25 | 25 | 12.5 | 0.78 | 0.39 | 0.39 | 0.39 | 0.78 | 0.39 | MIC (S. aureus Smith [2]; [16]): 0.39 µg/mL; MIC ([7]; Pseudomonas aeruginosa): 1.56 µg/mL; MIC (C. difficile I-E): 12.5 µg/mL; MIC (S. pyogenes 3107; [18]): 0.1 µg/mL; MIC (S. pyogenes 4372; [19]): 0.2 µg/mL
6 | NCC1CCN(c2c(F)cc3c(=O)c(C(=O)O)cn(C4CC4)c3c2Cl)C1 (stereo not drawn) [Example 14, 8-Chloro-l-cyclopropyl-6-fluoro-l,4-dihydro-7-(3-aminomethyl-l-pyrrolidinyl)-4-oxo-3-quinolinecarboxylic acid hydrochloride] |  |  |  | 0.025 | 0.05 | 0.025 | 0.025 | 0.0125 | 0.2 | 0.39 | 0.1 | 0.05 | 0.39 | 0.39 | 0.1 | 0.05 | 0.05 | 0.05 | 0.05 | 0.05 | MIC ([1]; Bacillus subtilis): 0.0125 µg/mL; MIC (S. aureus Smith [2]; [12]): 0.0125 µg/mL; MIC ([3]; IID670): 0.0125 µg/mL; MIC (S. epidermidis IID 866; IID866): 0.0125 µg/mL; MIC (S. pneumoniae 28): 0.05 µg/mL; MIC (S. pyogenes 3107; [18]): 0.025 µg/mL; MIC (S. pyogenes 4372; [19]): 0.05 µg/mL; ED50 (E. coli ML4707): 5.4 mg/kg; ED50 (S. pneumoniae S-4288): 10 mg/kg
